In patent US10106559B2, “Substituted tetrahydrocarbazole and carbazole carboxamide compounds” (BRISTOL-MYERS SQUIBB COMPANY, priority 2013, dated 2018):

What was measured:
[1] = molecular target: Jak2 tyrosine kinase (Homo sapiens (Human), UniProt O60674); assay: Jak2 Tyrosine Kinase Assay; format: biochemical; conditions: for Ratio of Jak2/Btk IC50 values: selectivity: Jak2 IC50 divided by Btk IC50
[2] = molecular target: human recombinant Btk (Homo sapiens (Human), UniProt Q06187); assay: Human Recombinant Btk Enzyme Assay; format: biochemical
Sequence of human recombinant Btk (Q06187 whole entry): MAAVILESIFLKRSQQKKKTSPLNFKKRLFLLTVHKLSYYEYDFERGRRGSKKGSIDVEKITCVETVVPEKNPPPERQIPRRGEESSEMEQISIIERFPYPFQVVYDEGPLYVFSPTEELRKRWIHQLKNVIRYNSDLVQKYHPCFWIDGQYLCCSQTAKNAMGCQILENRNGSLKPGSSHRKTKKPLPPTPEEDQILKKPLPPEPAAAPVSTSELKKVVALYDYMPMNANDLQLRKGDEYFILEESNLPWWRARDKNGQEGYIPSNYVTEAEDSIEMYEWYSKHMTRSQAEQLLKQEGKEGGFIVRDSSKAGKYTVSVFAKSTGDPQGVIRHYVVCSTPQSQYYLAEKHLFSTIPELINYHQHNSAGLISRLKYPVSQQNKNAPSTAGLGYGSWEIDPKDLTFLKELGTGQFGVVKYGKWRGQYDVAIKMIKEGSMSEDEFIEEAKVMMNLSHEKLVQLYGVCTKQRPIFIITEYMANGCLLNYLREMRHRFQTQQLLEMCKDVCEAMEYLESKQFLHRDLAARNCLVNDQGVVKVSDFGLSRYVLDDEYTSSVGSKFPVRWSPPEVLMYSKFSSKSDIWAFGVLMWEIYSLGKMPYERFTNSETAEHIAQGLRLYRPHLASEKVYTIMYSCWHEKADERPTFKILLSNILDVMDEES

[3] = system: CD69 expression on B cells in human whole blood; assay: Whole Blood Assay of BCR-Stimulated CD69 Expression on B Cells; format: cell-based; conditions: B-cell

Sequence of Jak2 tyrosine kinase (O60674 whole entry): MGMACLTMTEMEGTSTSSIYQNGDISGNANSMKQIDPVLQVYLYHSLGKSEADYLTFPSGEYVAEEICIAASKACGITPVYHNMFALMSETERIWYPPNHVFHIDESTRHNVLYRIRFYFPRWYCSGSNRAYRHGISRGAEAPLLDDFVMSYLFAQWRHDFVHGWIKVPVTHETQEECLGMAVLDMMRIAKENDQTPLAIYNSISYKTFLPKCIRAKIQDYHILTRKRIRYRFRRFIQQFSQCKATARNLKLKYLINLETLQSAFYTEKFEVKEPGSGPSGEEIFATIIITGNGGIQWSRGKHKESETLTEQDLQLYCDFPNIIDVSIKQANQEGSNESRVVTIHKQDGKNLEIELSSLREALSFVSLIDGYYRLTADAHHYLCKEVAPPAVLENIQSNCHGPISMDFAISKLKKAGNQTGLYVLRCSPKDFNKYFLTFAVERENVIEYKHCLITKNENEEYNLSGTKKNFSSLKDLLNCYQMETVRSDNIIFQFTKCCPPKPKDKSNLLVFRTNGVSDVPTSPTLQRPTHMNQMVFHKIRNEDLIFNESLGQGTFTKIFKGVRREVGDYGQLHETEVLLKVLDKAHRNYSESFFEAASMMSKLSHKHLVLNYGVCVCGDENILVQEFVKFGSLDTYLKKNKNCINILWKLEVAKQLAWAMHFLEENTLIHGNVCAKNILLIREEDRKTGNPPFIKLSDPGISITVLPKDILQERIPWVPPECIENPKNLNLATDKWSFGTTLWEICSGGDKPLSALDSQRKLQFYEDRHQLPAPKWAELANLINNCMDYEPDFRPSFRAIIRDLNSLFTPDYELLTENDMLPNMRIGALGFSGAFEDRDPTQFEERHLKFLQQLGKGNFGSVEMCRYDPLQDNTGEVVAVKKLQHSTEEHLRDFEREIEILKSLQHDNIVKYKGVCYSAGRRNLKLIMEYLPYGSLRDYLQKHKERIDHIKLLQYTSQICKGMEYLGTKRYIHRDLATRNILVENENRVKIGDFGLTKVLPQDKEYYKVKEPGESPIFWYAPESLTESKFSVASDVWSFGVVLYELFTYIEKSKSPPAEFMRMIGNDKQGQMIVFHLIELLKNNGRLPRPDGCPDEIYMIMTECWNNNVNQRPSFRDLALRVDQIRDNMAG

Row | Compound | IC50 [1] [nM] | Ratio of Jak2/Btk IC50 values [1] | IC50 [2] [nM] | IC50 [3] [nM]
1 | Cc1c(-c2c(F)cc(C(N)=O)c3[nH]c4cc(C(C)(C)O)ccc4c23)cccc1-n1c(=O)[nH]c2c(Cl)cccc2c1=O (single isomer, unassigned) [Example 53] | 2200 | 2000 | 1.1 | –
2 | Cc1cc(C(N)=O)c2[nH]c3cc(C(C)(C)O)ccc3c2c1-c1cccc(-n2c(=O)[nH]c3c(F)cccc3c2=O)c1C (single isomer, unassigned) [Example 66] | – | – | 0.34 | 89
3 | Cc1c(-c2c(F)cc(C(N)=O)c3[nH]c4c(c23)CC[C@H](C(C)(C)O)C4)cccc1-n1c(=O)cc2c(F)cccn2c1=O (single isomer, unassigned) [Example 68] | – | 630 | – | 75
4 | Cc1c(-c2c(C#N)cc(C(N)=O)c3[nH]c4cc(C(C)(C)O)ccc4c23)cccc1-n1c(=O)cc2c(Cl)cccn2c1=O (single isomer, unassigned) [Example 72] | 770 | 1600 | 0.49 | 200
5 | Cc1c(-c2c(F)cc(C(N)=O)c3[nH]c4cc(C(C)(C)O)ccc4c23)cccc1-n1c(=O)c2cccc(F)c2n(C)c1=O (single isomer, unassigned) [Example 74] | 4300 | – | – | 180
6 | COc1cccn2c(=O)n(-c3cccc(-c4c(Cl)cc(C(N)=O)c5[nH]c6cc(C(C)(C)O)ccc6c45)c3C)c(=O)cc12 [Example 37, 3-Chloro-7-(2-hydroxypropan-2-yl)-4-(3-(5-methoxy-1,3-dioxo-1H-pyrido[1,2-c]pyrimidin-2(3H)-yl)-2-methylphenyl)-9H-carbazole-1-carboxamide] | – | 690 | – | 200
7 | Cc1c(-c2c(F)cc(C(N)=O)c3[nH]c4cc(CCO)ccc4c23)cccc1-n1c(=O)cc2c(F)cccn2c1=O [Example 70] | – | 930 | – | 66
8 | Cc1cc(C(N)=O)c2[nH]c3cc(C(C)(C)O)ccc3c2c1-c1cccc(-n2c(=O)cc3c(Cl)cccn3c2=O)c1C [Example 71] | 800 | – | 0.41 | –

Continued, values first:

Row | IC50 [1] [nM] | Ratio of Jak2/Btk IC50 values [1] | IC50 [2] [nM] | IC50 [3] [nM] | Compound
9 | 1100 | 3300 | 0.33 | 25 | Cc1c(-c2c(Cl)cc(C(N)=O)c3[nH]c4cc(C(C)(C)O)ccc4c23)cccc1-n1c(=O)[nH]c2c(F)cc(F)cc2c1=O (single isomer, unassigned) [Example 48]
10 | 1200 | 3800 | 0.32 | – | Cc1c(-c2c(F)cc(C(N)=O)c3[nH]c4cc(C(C)(C)O)ccc4c23)cccc1-n1c(=O)[nH]c2c(F)cc(F)cc2c1=O (single isomer, unassigned) [Example 50]
11 | > 2000 | >6700 | 0.3 | 190 | Cc1c(-c2c(F)cc(C(N)=O)c3[nH]c4cc(C(C)(C)O)ccc4c23)cccc1-n1c(=O)[nH]c2cc(F)ccc2c1=O (single isomer, unassigned) [Example 51]
12 | 1200 | 3400 | 0.35 | – | Cc1c(-c2c(F)cc(C(N)=O)c3[nH]c4cc(C(C)(C)O)ccc4c23)cccc1-n1c(=O)[nH]c2c(Cl)cccc2c1=O (single isomer, unassigned) [Example 54]
13 | > 2000 | >2600 | 0.77 | 17 | Cc1c(-c2c(F)cc(C(N)=O)c3[nH]c4cc(C(C)(C)O)ccc4c23)cccc1-n1c(=O)[nH]c2c(F)cc(F)cc2c1=O [Example 49]
